Square brackets hold non-standard residues; d marks the D form. Peptide text beside a SMILES is read from it. * marks the point of attachment. Phe(ol) = N[C@H](CO)Cc1ccccc1; X1 = OC[C@H](Cc1cccc(F)c1)N*; X2 = OC[C@H](Cc1ccccc1F)N*; Aib = CC(C)(N)C(=O)O
Legend:
OVCAR-3 = test: Cytotoxicity against human OVCAR3 cells assessed as decrease in cell viability after 72 hrs by CellTiter 96 AQueous one solution cell proliferation assay; assay type: functional, cell-based; details: OVCAR-3, 72 h
MDA-MB-435 = test: Cytotoxicity against human MDA-MB-435 cells assessed as decrease in cell viability after 72 hrs by CellTiter 96 AQueous one solution cell proliferation assay; assay type: functional, cell-based; details: MDA-MB-435, 72 h
MDA-MB-231 = test: Cytotoxicity against human MDA-MB-231 cells assessed as decrease in cell viability after 72 hrs by CellTiter 96 AQueous one solution cell proliferation assay; details: MDA-MB-231, 72 h

SMILES | IC50 (OVCAR-3) | IC50 (MDA-MB-435) | IC50 (MDA-MB-231)
CC(=O)NC(C)(C)C(=O)N[C@@H](C)C(=O)NC(C)(C)C(=O)N[C@@H](C)C(=O)NC(C)(C)C(=O)N[C@@H](C)C(=O)N[C@@H](CCC(N)=O)C(=O)NC(C)(C)C(=O)N[C@H](C(=O)NC(C)(C)C(=O)NCC(=O)N[C@@H](CC(C)C)C(=O)NC(C)(C)C(=O)N1CCC[C@H]1C(=O)N[C@H](C(=O)NC(C)(C)C(=O)NC(C)(C)C(=O)N[C@@H](CCC(N)=O)C(=O)N[C@@H](CCC(N)=O)C(=O)N[C@H](CO)Cc1ccccc1F)C(C)C)C(C)C (Ac-[Aib]A[Aib]A[Aib]AQ[Aib]V[Aib]GL[Aib]PV[Aib][Aib]QQ-X2) | 5 µM | – | –
CC(=O)O[C@H]1C(=O)[C@@]2(C)[C@H]([C@H](OC(=O)c3ccccc3)[C@]3(O)C[C@H](OC(=O)[C@H](O)[C@@H](NC(=O)c4ccccc4)c4ccccc4)C(C)=C1C3(C)C)[C@]1(OC(C)=O)CO[C@@H]1C[C@@H]2O [PACLITAXEL] | 0.002 µM | – | –
CC(=O)NC(C)(C)C(=O)N[C@@H](C)C(=O)NC(C)(C)C(=O)N[C@@H](C)C(=O)NC(C)(C)C(=O)N[C@@H](C)C(=O)N[C@@H](CCC(N)=O)C(=O)NC(C)(C)C(=O)N[C@H](C(=O)NC(C)(C)C(=O)NCC(=O)N[C@@H](CC(C)C)C(=O)NC(C)(C)C(=O)N1CCC[C@H]1C(=O)N[C@H](C(=O)NC(C)(C)C(=O)NC(C)(C)C(=O)N[C@@H](CCC(N)=O)C(=O)N[C@@H](CCC(N)=O)C(=O)N[C@H](CO)Cc1cccc(F)c1)C(C)C)C(C)C (Ac-[Aib]A[Aib]A[Aib]AQ[Aib]V[Aib]GL[Aib]PV[Aib][Aib]QQ-X1) | 4.4 µM | – | –
CC(=O)NC(C)(C)C(=O)N[C@@H](C)C(=O)NC(C)(C)C(=O)N[C@@H](C)C(=O)NC(C)(C)C(=O)N[C@@H](C)C(=O)N[C@@H](CCC(N)=O)C(=O)NC(C)(C)C(=O)N[C@H](C(=O)NC(C)(C)C(=O)NCC(=O)N[C@@H](CC(C)C)C(=O)NC(C)(C)C(=O)N1CCC[C@H]1C(=O)N[C@H](C(=O)NC(C)(C)C(=O)NC(C)(C)C(=O)N[C@@H](CCC(N)=O)C(=O)N[C@@H](CCC(N)=O)C(=O)N[C@H](CO)Cc1ccccc1)C(C)C)C(C)C (Ac-[Aib]A[Aib]A[Aib]AQ[Aib]V[Aib]GL[Aib]PV[Aib][Aib]QQ[Phe(ol)]) | 5.1 µM | 4.8 µM | 5.1 µM
